Assay results reported in patent US20210139497A1, “THIENOCYCLIC COMPOUND AND SYNTHESIS METHOD THEREFOR AND APPLICATION THEREOF” (SHANGHAI YUYAO BIOTECH LTD., priority 2017, published 2021).

What was measured:
[1] = biological target: T1, human PGE2 receptor EP4 subtype (hEP4) (Homo sapiens, UniProt P35408); test: Calcium flux of human prostaglandin E2 receptor EP4 subtype; type: cell-based; conditions: CHO-K1-Gα16 cells overexpressing hEP4, calcium flux activated by prostaglandin E2; read-out: hEP4 Ca^2+ IC50
T1 construct: expressed in transfected cells; host or cells: CHO-K1-Gα16
T1 sequence (P35408 whole entry): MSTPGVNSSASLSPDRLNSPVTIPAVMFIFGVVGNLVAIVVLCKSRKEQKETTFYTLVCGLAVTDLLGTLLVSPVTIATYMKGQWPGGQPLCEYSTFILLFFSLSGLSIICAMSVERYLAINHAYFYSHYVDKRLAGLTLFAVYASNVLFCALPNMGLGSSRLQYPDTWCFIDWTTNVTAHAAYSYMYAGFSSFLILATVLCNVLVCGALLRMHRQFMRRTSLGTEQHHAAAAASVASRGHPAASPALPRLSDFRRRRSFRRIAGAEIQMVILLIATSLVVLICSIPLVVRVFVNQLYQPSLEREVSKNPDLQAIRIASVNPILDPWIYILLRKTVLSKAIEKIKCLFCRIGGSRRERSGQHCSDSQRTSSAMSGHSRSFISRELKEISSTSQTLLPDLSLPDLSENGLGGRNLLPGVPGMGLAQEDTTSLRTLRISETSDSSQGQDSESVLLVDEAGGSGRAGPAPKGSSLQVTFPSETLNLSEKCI
Protocol: (§1) CHO-K1-Gα16 cells at the logarithmic growth phase were transfected with EP4 overexpressing vector by Lipofectamine 2000 and then seeded in a 96-well plate (Falcon, CA) and cultured at 20000 cells per 100 μL culture medium overnight. On the second day, every single well were added with 100 μL calcium 5 detection reagents (Molecular Devices) and incubated in incubator at 37° C., 5% CO2 for 45 minutes. The compounds were diluted in HBSS detection buffer, then added to 96-well plates. After incubated for 20 min at room temperature away from light, certain concentration of prostaglandin E2 was used to activate calcium flux of cells for detection (Flexstation 3, MD, CA).
(§2) Calculate the IC50 of the compounds of the invention in inhibiting the calcium flux of human PGE2 receptor EP4 subtype (hEP4) and mouse PGE2 receptor EP4 subtype (mEP4) (i.e. the concentration of drugs at which the intracellular Ca^2+ flux is inhibited by half after overexpressing hEP4 and mEP4 receptors in CHO-K1-Gα16 cells). The IC50 of the drugs were calculated using GraphPad Prism 5.

[2] = biological target: T2, mouse PGE2 receptor EP4 subtype (mEP4) (Mus musculus, UniProt P32240); test: Calcium flux of mouse prostaglandin E2 receptor EP4 subtype; type: cell-based; conditions: CHO-K1-Gα16 cells overexpressing mEP4, calcium flux activated by prostaglandin E2; read-out: mEP4 Ca^2+ IC50
T2 construct: expressed in transfected cells; host or cells: CHO-K1-Gα16
T2 sequence (P32240 whole entry): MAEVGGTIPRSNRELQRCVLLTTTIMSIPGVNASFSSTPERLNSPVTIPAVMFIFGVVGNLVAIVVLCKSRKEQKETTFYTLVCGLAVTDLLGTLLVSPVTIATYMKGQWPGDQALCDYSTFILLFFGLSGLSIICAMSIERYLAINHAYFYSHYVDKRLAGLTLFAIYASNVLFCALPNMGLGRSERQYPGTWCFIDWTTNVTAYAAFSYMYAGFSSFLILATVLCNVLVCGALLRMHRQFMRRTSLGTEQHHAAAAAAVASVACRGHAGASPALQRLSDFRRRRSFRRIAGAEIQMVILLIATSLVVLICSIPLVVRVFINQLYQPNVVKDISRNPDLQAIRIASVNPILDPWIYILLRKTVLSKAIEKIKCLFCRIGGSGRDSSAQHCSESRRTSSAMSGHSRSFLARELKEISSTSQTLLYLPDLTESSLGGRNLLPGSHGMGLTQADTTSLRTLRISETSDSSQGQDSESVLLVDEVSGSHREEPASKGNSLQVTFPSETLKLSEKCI
Protocol: as §1, §2

[3] = biological target: T3, human prostaglandin E2 receptor EP1 subtype (Homo sapiens, UniProt P34995); test: Calcium flux of human prostaglandin E2 receptor EP1 subtype; type: cell-based; conditions: CHO-K1-Gα16 cells overexpressing human EP1, activated by prostaglandin E2; read-out: hEP1 Ca^2+ IC50
T3 construct: expressed in transfected cells; host or cells: CHO-K1-Gα16
T3 sequence (P34995 1-402): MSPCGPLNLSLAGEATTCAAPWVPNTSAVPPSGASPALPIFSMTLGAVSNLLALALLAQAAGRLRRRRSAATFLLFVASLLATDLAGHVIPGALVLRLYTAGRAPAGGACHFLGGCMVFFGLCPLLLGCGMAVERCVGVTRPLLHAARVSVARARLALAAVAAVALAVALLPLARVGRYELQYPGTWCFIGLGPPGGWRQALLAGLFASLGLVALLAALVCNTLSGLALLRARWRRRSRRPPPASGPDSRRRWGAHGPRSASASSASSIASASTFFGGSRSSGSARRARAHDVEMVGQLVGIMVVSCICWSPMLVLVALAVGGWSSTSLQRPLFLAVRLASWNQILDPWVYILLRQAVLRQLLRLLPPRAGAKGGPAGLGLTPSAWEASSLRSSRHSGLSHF
Protocol: (§3) CHO-K1-Gα16 cells at the logarithmic growth phase were transfected with human prostaglandin E2 Receptor subtypes EP1, EP2 or EP3 overexpressing vector by Lipofectamine 2000, then seeded in a 96-well plate (Falcon, CA) at a density of 20000 cells per 100 μL culture medium for overnight culture. On the second day, every single well were added with 100 μL calcium 5 detection reagents (Molecular Devices) and incubated in incubator at 37° C., 5% CO2 for 45 minutes. The compounds were diluted with HBSS detection buffer, then were added to 96-well plates. After 20 min incubation at room temperature in the dark, prostaglandin E2 at certain concentration was used to activate calcium flux of cells for detection (Flexstation 3, MD, CA).
(§4) Calculate the IC50 of the compounds of the invention in inhibiting the calcium flux of human EP1, EP2, and EP3 receptor (i.e. the concentration of drugs at which the intracellular Ca^2+ flux being inhibited by half after overexpressing human EP1, EP2, and EP3 receptors in CHO-K1-Gα16 cells). The IC50 of the drugs were calculated using GraphPad Prism 5.

[4] = biological target: T4, human prostaglandin E2 receptor EP2 subtype (Homo sapiens, UniProt P43116); test: Calcium flux of human prostaglandin E2 receptor EP2 subtype; type: cell-based; conditions: CHO-K1-Gα16 cells overexpressing human EP2, activated by prostaglandin E2; read-out: hEP2 Ca^2+ IC50
T4 construct: expressed in transfected cells; host or cells: CHO-K1-Gα16
T4 sequence (P43116 whole entry): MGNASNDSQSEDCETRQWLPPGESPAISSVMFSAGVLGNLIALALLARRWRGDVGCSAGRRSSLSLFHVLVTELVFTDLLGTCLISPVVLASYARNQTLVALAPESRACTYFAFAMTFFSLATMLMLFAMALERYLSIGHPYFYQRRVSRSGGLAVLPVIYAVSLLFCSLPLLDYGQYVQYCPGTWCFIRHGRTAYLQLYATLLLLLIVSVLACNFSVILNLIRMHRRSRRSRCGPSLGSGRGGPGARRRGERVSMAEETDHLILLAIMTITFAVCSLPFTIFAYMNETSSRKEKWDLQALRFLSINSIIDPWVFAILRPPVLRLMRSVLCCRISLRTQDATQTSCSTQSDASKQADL
Protocol: as §3, §4

[5] = biological target: T5, human prostaglandin E2 receptor EP3 subtype (Homo sapiens, UniProt P43115); test: Calcium flux of human prostaglandin E2 receptor EP3 subtype; type: cell-based; conditions: CHO-K1-Gα16 cells overexpressing human EP3, activated by prostaglandin E2; read-out: hEP3 Ca^2+ IC50
T5 construct: expressed in transfected cells; host or cells: CHO-K1-Gα16
T5 sequence (P43115 1-390): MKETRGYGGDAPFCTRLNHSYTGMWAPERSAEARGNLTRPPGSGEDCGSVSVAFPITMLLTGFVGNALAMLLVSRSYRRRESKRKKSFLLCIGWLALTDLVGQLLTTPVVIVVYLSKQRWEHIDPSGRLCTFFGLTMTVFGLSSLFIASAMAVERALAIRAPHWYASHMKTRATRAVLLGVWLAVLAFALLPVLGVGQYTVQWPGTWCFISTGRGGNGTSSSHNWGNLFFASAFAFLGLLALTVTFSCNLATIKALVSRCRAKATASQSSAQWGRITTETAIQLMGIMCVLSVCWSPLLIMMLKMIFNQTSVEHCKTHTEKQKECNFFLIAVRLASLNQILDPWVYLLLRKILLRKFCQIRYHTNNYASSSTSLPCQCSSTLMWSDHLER
Protocol: as §3, §4

[6] = system: mouse colon cancer cells CT26; test: CT26 subcutaneous tumor-bearing model, Balb/c mice; type: in vivo; conditions: female Balb/c mice, 75 mg/kg/day; for Inhibitory effect on growth of subcutaneous CT26 colon cancer: 14 days, vs negative control, FIG. 3
Protocol: 2×10^6 mouse colon cancer cells CT26 were subcutaneously injected into right side of each mouse's back (female Balb/c mouse, 6-8 weeks). The length and width of subcutaneous tumors in the back of mice were measured using vernier calipers, and tumor volume (mm^3)=(length(mm)×width(mm)×width(mm)×n)/6 was calculated. […] The volume of subcutaneous tumors on the back of mice was measured and counted twice a week. Continuous administrated for a period of 14 days and the changes of tumor volumes were recorded.
(§5) Mouse colon cancer cells MC38, pancreatic cancer cells Pan02, breast cancer cells 4T1, prostate cancer cells RM-1 and colon cancer cells CT26 were cultivated to required amount. Then, cells at a cell density of 5×10^5-2×10^6 were subcutaneously injected into right side of the back of selected female C57BL/6 mice aging 6-8 weeks (MC38, Pan02), male C57BL/6 mice aging 6-8 weeks (RM-1), female Balb/c mice aging 6-8 weeks (4T1, CT26) and female Balb/c nude mice aging 6-8 weeks (CT26). The length and width of subcutaneous tumors in the backs of mice were measured using vernier calipers, and tumor volume(mm^3)=(length(mm)×width(mm)×width(mm)×n)/6 was calculated. […] The volume of subcutaneous tumors on the back of mice was measured and counted 2-4 times a week. Continuous administrated for 12-22 days and the changes of tumor volumes were recorded.

[7] = Cytotoxicity evaluation (CCK8), LLC; conditions: mouse, LLC lung cancer cells
Protocol: (§6) Cells with a density of 2000-8000 cells per 100 μL medium were seeded in 96-well plates (Falcon, CA) and incubated for 24 hours, then treated with drugs having different concentration gradient (at least 4 replicates per concentration) and incubated at 37° C. in 5% CO2 incubator for 72 hours. Then cell viability was detected by CCK8 method. That is to say, add 10 μL CCK8 to each well and incubate for 0.33-2 h, and the OD values are read by microplate reader at 450 nm. The inhibition rate on cell survival of compounds with each concentration were calculated.
(§7) Inhibition rate on cell survival=(OD value of groups with each concentration/OD
(§8) value of control group)×100%±standard deviation.
(§9) The IC50 of drugs were calculated using GraphPad Prism 5.0.

[8] = Cytotoxicity evaluation (CCK8), 293; conditions: human
[9] = Cytotoxicity evaluation (CCK8), MOSJ; conditions: mouse, MOSJ osteosarcoma cells
Protocol: as §6, §7, §8, §9

[10] = Cytotoxicity evaluation (CCK8), CT26; conditions: mouse, CT26 intestinal cancer cells
Protocol: as §6, §7, §8, §9

[11] = Cytotoxicity evaluation (CCK8), EMT-6; conditions: mouse, EMT-6 breast cancer cells
Protocol: as §6, §7, §8, §9

[12] = Cytotoxicity evaluation (CCK8), PANC02; conditions: mouse, PANC02 pancreatic cancer cells
Protocol: as §6, §7, §8, §9

[13] = system: mouse colon cancer cells MC38; test: MC38 subcutaneous tumor-bearing model, C57BL/6 mice; type: in vivo; conditions: female C57BL/6 mice, 75 mg/kg/day, 12-22 days, FIG. 4
Text: as §5

[14] = system: pancreatic cancer cells Pan02; test: Pan02 subcutaneous tumor-bearing model, C57BL/6 mice; type: in vivo, mouse; conditions: female C57BL/6 mice, 75 mg/kg/day, 12-22 days, FIG. 4
Text: as §5

breast cancer cells 4T1 = test: 4T1 subcutaneous tumor-bearing model, Balb/c mice; type: in vivo, mouse; conditions: female Balb/c mice, 75 mg/kg/day, 12-22 days, FIG. 4
Text: as §5

[15] = system: prostate cancer cells RM-1; test: RM-1 subcutaneous tumor-bearing model, C57BL/6 mice; type: in vivo, mouse; conditions: male C57BL/6 mice, 75 mg/kg/day, 12-22 days, FIG. 4
Text: as §5

colon cancer cells CT26 = test: CT26 subcutaneous tumor-bearing model, Balb/c nude mice; type: in vivo, mouse; conditions: female Balb/c nude mice, 75 mg/kg/day
Text: as §5

[16] = system: mouse models of colon cancer, breast cancer, pancreatic cancer and sarcoma; conditions: Oncoimmunology 2017; cited from earlier work

| SMILES | IC50 [1] | IC50 [2] | IC50 [3] | IC50 [4] | IC50 [5] | Inhibitory effect on growth of subcutaneous CT26 colon cancer [6] | IC50 at 72 h [7] | IC50 at 72 h [8] | IC50 at 72 h [9] | IC50 at 72 h [10] | IC50 at 72 h [11] | IC50 at 72 h [12] | Inhibition of growth of colon cancer cells CT26 in subcutaneous tumor-bearing mice ([6]; 12 to 22-day administration (Example 6)) | Inhibition of growth of colon cancer cells MC38 in subcutaneous tumor-bearing mice [13] | Inhibition of growth of pancreatic cancer cells Pan02 in subcutaneous tumor-bearing mice [14] | Inhibition of growth of breast cancer cells 4T1 in subcutaneous tumor-bearing mice (breast cancer cells 4T1) | Inhibition of growth of prostate cancer cells RM-1 in subcutaneous tumor-bearing mice [15] | Inhibition of CT26 tumor growth in Balb/c nude mice with immune system deficiency (colon cancer cells CT26) | Inhibitory effects in mouse tumor models [16] |
| --- | --- | --- | --- | --- | --- | --- | --- | --- | --- | --- | --- | --- | --- | --- | --- | --- | --- | --- | --- |
| C[C@H](NC(=O)c1c(Cc2cccc(C(F)(F)F)c2)sc2c1CCOC2)c1ccc(C(=O)O)cc1 [YJ116, (S)-4-(1-(2-(3-(trifluoromethyl)benzyl)-5,7-dihydro-4H-thieno[2,3-c]pyran-3-carboxamido)ethyl)benzoic Acid] | < 0.1 µM | < 0.1 µM | > 10 µM | > 10 µM | > 10 µM | able to suppress the growth | > 100 µM | > 100 µM | > 100 µM | > 100 µM | > 100 µM | > 100 µM | – | – | – | – | – | – | – |
| C[C@H](NC(=O)c1c(Cc2ccc(F)cc2)sc2c1CCOC2)c1ccc(C(=O)O)cc1 [YJ114, (S)-4-(1-(2-(4-fluorobenzyl)-5,7-dihydro-4H-thieno[2,3-c]pyran-3-carboxamido)ethyl)benzoic Acid] | – | – | > 10 µM | > 10 µM | > 10 µM | able to suppress the growth | > 100 µM | > 100 µM | > 100 µM | > 100 µM | > 100 µM | > 100 µM | can efficiently inhibit the growth | can efficiently inhibit the growth | can efficiently inhibit the growth | can efficiently inhibit the growth | can efficiently inhibit the growth | can not inhibit the tumor growth | – |
| C[C@H](NC(=O)c1c(C(F)F)nn(C)c1Oc1cccc(C(F)(F)F)c1)c1ccc(C(=O)O)cc1 [Compound E7046, reference compound] | – | – | – | – | – | comparable with that of E7046 | – | – | – | – | – | – | – | – | – | – | – | – | good inhibitory effects |
| C[C@H](NC(=O)c1c(CCc2ccc(F)cc2)sc2c1CCOC2)c1ccc(C(=O)O)cc1 [YJ106, (S)-4-(1-(2-(4-fluorophenethyl)-4,7-dihydro-5H-thieno[2,3-c]pyran-3-carboxamido)ethyl)benzoic Acid] | < 0.1 µM | < 0.1 µM | – | – | – | able to suppress the growth | > 100 µM | > 100 µM | > 100 µM | > 100 µM | > 100 µM | > 100 µM | – | – | – | – | – | – | – |
